Results taken from ChEMBL document CHEMBL4665747, “Glycosides and Glycoconjugates of the Diterpenoid Isosteviol with a 1,2,3-Triazolyl Moiety: Synthesis and Cytotoxicity Evaluation” (J Nat Prod, 2020).
Activity calls are given as the source filed them. The calls are words filed in the database; no cut-off is given here.

Columns and labels:
[1] = test system: WI-38; experiment: Cytotoxicity against human WI-38 cells assessed as reduction in cell viability after 24 hrs by DAPI staining-based fluorescence assay; conditions: WI-38, 24 h
[2] = Selectivity index, ratio of IC50 for human chang liver cells to IC50 for human HelaM cells
[3] = test system: MCF7; experiment: Cytotoxicity against human MCF7 cells assessed as reduction in cell viability after 24 hrs by DAPI staining-based fluorescence assay; format: functional; conditions: MCF7, 24 h
[4] = test system: M-HeLa; experiment: Cytotoxicity against human HelaM cells assessed as reduction in cell viability after 24 hrs by DAPI staining-based fluorescence assay; format: functional
[5] = Cytotoxicity against human Chang liver cells assessed as reduction in cell viability after 24 hrs by DAPI staining-based fluorescence assay
[6] = test system: M-HeLa; experiment: Induction of apoptosis in human HelaM cells assessed as increase in Bcl2 level at 10 uM incubated for 24 hrs; format: functional, cell-based
[7] = test system: M-HeLa; experiment: Induction of apoptosis in human HelaM cells assessed as increase in p53 level at 10 uM incubated for 24 hrs; format: functional, cell-based
[8] = test system: M-HeLa; experiment: Induction of apoptosis in human HelaM cells assessed as necrotic cells at 10 uM after 24 hrs by V-FITC/propidium iodide staining-based flow cytometric analysis (reference value: 4.55 %); format: functional
[9] = test system: M-HeLa; experiment: Induction of mitochondrial membrane potential loss in human HelaM cells assessed as cell population with mitochondrial membrane potential collapse at 10 uM by JC-10 staining-based flow cytometric analysis (reference value: 22.17 %); format: functional
[10] = test system: M-HeLa; experiment: Induction of mitochondrial membrane potential loss in human HelaM cells assessed as cell population with mitochondrial membrane potential collapse at 25 uM by JC-10 staining-based flow cytometric analysis (reference value: 22.17 %); format: functional
[11] = test system: M-HeLa; experiment: Induction of mitochondrial membrane potential loss in human HelaM cells assessed as cell population with intact mitochondrial membrane potential at 10 uM by JC-10 staining-based flow cytometric analysis (reference value: 77.48 %); format: functional
[12] = test system: M-HeLa; experiment: Induction of apoptosis in human HelaM cells assessed as increase in JNK level at 10 uM incubated for 24 hrs; format: functional, cell-based
[13] = test system: M-HeLa; experiment: Induction of apoptosis in human HelaM cells assessed as viable cells at 10 uM after 24 hrs by V-FITC/propidium iodide staining-based flow cytometric analysis (reference value: 93.33 %); format: functional; conditions: read-out: Activity
[14] = test system: M-HeLa; experiment: Induction of apoptosis in human HelaM cells assessed as increase in Akt level at 10 uM incubated for 24 hrs; format: functional, cell-based
[15] = test system: M-HeLa; experiment: Induction of apoptosis in human HelaM cells assessed as late apoptotic cells at 10 uM after 24 hrs by V-FITC/propidium iodide staining-based flow cytometric analysis (reference value: 0.62 %); format: functional
[16] = test system: M-HeLa; experiment: Induction of apoptosis in human HelaM cells assessed as increase in caspase-8 level at 10 uM incubated for 24 hrs; format: functional, cell-based
[17] = test system: M-HeLa; experiment: Induction of apoptosis in human HelaM cells assessed as early apoptotic cells at 10 uM after 24 hrs by V-FITC/propidium iodide staining-based flow cytometric analysis (reference value: 1.5 %); format: functional
[18] = test system: M-HeLa; experiment: Induction of apoptosis in human HelaM cells assessed as late apoptotic cells at 25 uM after 24 hrs by V-FITC/propidium iodide staining-based flow cytometric analysis (reference value: 0.62 %); format: functional
[19] = test system: M-HeLa; experiment: Induction of apoptosis in human HelaM cells assessed as increase in Bad level at 10 uM incubated for 24 hrs; format: functional, cell-based
[20] = test system: M-HeLa; experiment: Induction of apoptosis in human HelaM cells assessed as early apoptotic cells at 25 uM after 24 hrs by V-FITC/propidium iodide staining-based flow cytometric analysis (reference value: 1.5 %); format: functional
[21] = test system: M-HeLa; experiment: Induction of apoptosis in human HelaM cells assessed as necrotic cells at 25 uM after 24 hrs by V-FITC/propidium iodide staining-based flow cytometric analysis (reference value: 4.55 %); format: functional
[22] = test system: M-HeLa; experiment: Induction of apoptosis in human HelaM cells assessed as increase in caspase-9 level at 10 uM incubated for 24 hrs; format: functional, cell-based
[23] = test system: M-HeLa; experiment: Induction of mitochondrial membrane potential loss in human HelaM cells assessed as cell population with intact mitochondrial membrane potential at 25 uM by JC-10 staining-based flow cytometric analysis (reference value: 77.48 %); format: functional
[24] = test system: M-HeLa; experiment: Induction of apoptosis in human HelaM cells assessed as viable cells at 25 uM after 24 hrs by V-FITC/propidium iodide staining-based flow cytometric analysis (reference value: 93.33 %); format: functional; conditions: read-out: Activity

With `CC(=O)OC[C@H]1O[C@@H](n2cc(COC(=O)[C@]3(C)CCC[C@@]4(C)[C@@H]5CC[C@@]6(C)C[C@]5(CC[C@@H]43)CC6=O)nn2)[C@H](OC(C)=O)[C@@H](OC(C)=O)[C@@H]1OC(C)=O` the IC50 [1] was 36 µM, the “Ratio IC50” value [2] was 8.5 and the IC50 [3] was > 10 µM. The IC50 [4] was 8 µM and the IC50 [5] was 68.3 µM.
In the case of `CC(=O)OC[C@H]1O[C@@H](n2cc(COC(=O)[C@]3(C)CCC[C@@]4(C)[C@@H]5CC[C@@]6(C)C[C@]5(CC[C@@H]43)CC6=O)nn2)[C@H](OC(C)=O)[C@@H](OC(C)=O)[C@H]1OC(C)=O`, the Activity [6] is reported as “Active”, the Activity [7] is reported as “Active” and the Activity [8] is reported as 0.91%. The Activity [9] was 40.74%, the Activity [10] was 84.65% and the Activity [11] was 59.16%. The Activity [12] was “Active”, the viability at 10 µM [13] was 82% and the Activity [14] was “Active”. For the same molecule, the IC50 [1] was 69.7 µM, the Activity [15] was 9.09% and the Activity [16] was “Active”. The Activity [17] was 7.95%, the Activity [18] was 11.5% and the Activity [19] was “Active”. For the same molecule, the “Ratio IC50” value [2] was >56, the Activity [20] was 9.53% and the Activity [21] was 1.26%. For the same molecule, the IC50 [3] was > 10 µM, the IC50 [4] was 1.8 µM and the IC50 [5] was > 100 µM. For the same molecule, the Activity [22] was “Active”, the Activity [23] was 15.35% and the viability at 25 µM [24] was 77.7%.
In the case of `COc1cccc2c1C(=O)c1c(O)c3c(c(O)c1C2=O)C[C@@](O)(C(=O)CO)C[C@@H]3O[C@H]1C[C@H](N)[C@H](O)[C@H](C)O1` [DOXORUBICIN], the IC50 [5] is reported as 3 µM.
Molecule `CC(=O)O[C@@H]1[C@H](OC(C)=O)[C@H](OC(C)=O)CO[C@H]1n1cc(COC(=O)[C@]2(C)CCC[C@@]3(C)[C@@H]4CC[C@@]5(C)C[C@]4(CC[C@@H]32)CC5=O)nn1` has an Activity [8] of 0.34%, an Activity [9] of 40.23% and an Activity [10] of 86.44%. For the same molecule, the Activity [11] was 59.62%, the viability at 10 µM [13] was 81.9% and the IC50 [1] was 40 µM. For the same molecule, the Activity [15] was 8.21%, the Activity [17] was 9.53% and the Activity [18] was 11.59%. For the same molecule, the “Ratio IC50” value [2] was >59, the Activity [20] was 8.57% and the Activity [21] was 0.66%. The IC50 [3] was > 10 µM, the IC50 [4] was 1.7 µM and the IC50 [5] was > 100 µM. The Activity [23] was 13.46% and the viability at 25 µM [24] was 79.2%.
Molecule `CC(=O)OC[C@H]1O[C@@H](n2cc(COC(=O)[C@]3(C)CCC[C@@]4(C)[C@@H]5CC[C@@]6(C)C[C@]5(CC[C@@H]43)CC6=O)nn2)[C@H](OC(C)=O)[C@@H]1OC(C)=O` has an Activity [8] of 0.03%, an Activity [9] of 44.73% and an Activity [10] of 90.09%. The Activity [11] was 55.17%, the viability at 10 µM [13] was 67.3% and the IC50 [1] was > 100 µM. The Activity [15] was 20.94%, the Activity [17] was 11.71% and the Activity [18] was 23.66%. For the same molecule, the “Ratio IC50” value [2] was >53, the Activity [20] was 22.44% and the Activity [21] was 0%. For the same molecule, the IC50 [3] was > 10 µM, the IC50 [4] was 1.9 µM and the IC50 [5] was > 100 µM. The Activity [23] was 9.86% and the viability at 25 µM [24] was 53.9%.
